From patent US6376175B1, “Methods of discovering chemicals capable of functioning as gene expression modulators” (OSI Pharmaceuticals, Inc., priority 1989, dated 2002)

How the values were obtained:
G-CSF promoter = assay: G-CSF promoter-luciferase induction by known inducers, clone G 1002 (5637 cells); assay type: cell-based, human; conditions: 10.5 hours, serum-containing media; 8.3 ng/ml TNF-alpha, 20 ng/ml PMA, 0.5 ng/ml Interleukin-1 beta, or mixtures as labelled
Source text: Cloning of G-CSF sequences is described in Experimental Details, section B-3. In order to correctly fuse the G-CSF upstream sequences to the luciferase start codon, oligonucleotides were synthesized which contain the G-CSF leader sequence from +15 to the ATG (32), and were cloned into pUC19 to create pGUC84 (FIG. 29). […] The G-CSF-oligonucleotide-containing NcoI/ScaI fragment from pGUC84 was then isolated and ligated to the luciferase-containing NcoI/ScaI fragment from pUV100 to create pGUV100 (FIG. 30). Following this, the PstI fragment of the G-CSF promoter was isolated form pJM710 (FIG. 7) and inserted into the PstI site in pGUV100 generating pGUV1(FIG. 31). The rest of the G-CSF promoter clone was added by ligating the G-CSF-luciferase containing SfiI/ScaI fragment from pGUV1 to the appropriate SfiI/ScaI fragment from pJM710, creating the plasmid pGUV2 (FIG. 32). The XbaI fragment from pGUV2 containing the G-CSF-luciferase fusion was then cloned into pUV103 previously digested with XbaI/SpeI, generating pGUV140 (FIG. 33). Finally, a TK-Neo cassette (Section C) was included by ligating the ScaI/XbaI fragment from pGUV140 which contains the G-CSF-luciferase fusion into pTKNEO103 previously digested with ScaI/XbaI, yielding the final vector pGUV150 (FIG. 34).
All the following constructs were transfected into 5637 bladder carcinoma cells either by electroporation using a BRL (Gaithersburg, Md.) Cellporator electroporation device or by lipofection using BRL lipofectin and following the manufacturer's protocol. For electroporation, cells were trypsinized, treated with Soybean trypsin inhibitor (1 mg/ml), washed three times in Dulbecco's modified Eagle's medium (DMEM) without pH indicator, and 1 ml of cell suspension in DMEM was electroporated at room temperature and at a cell density of 5 million cells per ml at a voltage of 250 V and a capacitance of 1180 microFarad with the electroporation device set at low resistance. In previous experiments these parameters had been determined to result in optimal electroporation efficiency. About 15 min after electroporation cells were recovered from the disposable electroporation containers (BRL, Gaithersburg, Md.) and plated in RPMI containing 10% fetal calf serum. 2 days after electroporation 0.4 mg/ml G 418 were added and clonal cell colonies were picked 14-20 days after transfection. Clones were first analysed for luciferase expression using Lysis Buffer 1 without bovine serum albumin (see Section F) and those testing positive expanded further and frozen in liquid nitrogen. Further analysis of 6 clones (G 1002, G 2005, G 2071, G 2085, G 3014, G3031) included Southern blotting, reaction to known inducers, satisfactory attachment to microtiter plates and acceptable standard deviation in multiple luciferase expression assays. Clones G 2005 and G 2085 were derived from 5637 cells lipofected with 100 ug/ml of linearized pGVU150 (FIG. 34), G 3031 descends from cells electroporated with 100 ug/ml of linearized pGVU150, whereas 200 ug/ml of the same plasmid were used to generate G 3014. Cotransfection of circular pGVU140 (FIG. 33) with circular pTKNeo3 (FIG. 19) was used to generate clones G 1002 and G 2071. While G 1002 resulted from co-electroporation of 50 and 5 ug/ml of the two plasmids, G 2071 descends from cells lipofected with 100 and 10 ug.
Cell clones with correctly integrated promoter/reporter constructs were analysed for correct reaction to known transcriptional inducers. […] Both TNF-alpha- and PMA-induction levels of clone G 1002 were influenced by the presence or absence of epidermal growth factor (EGF). […] The 9.3fold induction by PMA in the absence of EGF was reduced to 5.6fold by including EGF in the serum-free incubation mixture. Similar differences were observed, when EGF was substituted by 10% fetal calf serum.

human G-CSF promoter = assay type: cell-based; conditions: Table 2 A) transcriptional activators; G21 cells, 6 hours, high-throughput screen
Source text: A human bladder carcinoma cell line (U5637, ATCC number HTB 9) was used for transfection of plasmids containing the human Granulocyte-Colony Stimulating Factor (G-CSF) promoter (see below) and was maintained in RPMI medium supplemented with 10% FCS. For HTP screening, transfected 5637 clones were transferred to a serum free defined medium identical to that used for the NIH/3T3 clones.
The sequences of OL-1, OL-2 and OL-5 recognize the G-CSF promoter region, OL-4 recognizes the first intron/exon junction and OL-3 recognizes sequences within the second exon (32). One of the clones isolated from the leukocyte library using these oligonucleotide probes contains a 3.5 kb SalI-BamHI fragment of G-CSF genomic sequence consisting of 3.3 kb of promoter sequence and two hundred base pairs of the coding region. This fragment was inserted into the vector pGEM-7-Zf (Promega, Madison, Wis.) which had previously been digested with SalI/BamHI, resulting in the vector pJM710 (FIG. 7). pJM710 was then digested with PstI, and the resulting 1.6 kb fragment containing G-CSF upstream sequences and the first 15 bases of the G-CSF leader sequence was inserted into the PstI site of pGEM5-Luci (FIG. 8) to generate pG-Lucl (FIG. 9). This construct was then used for transfection of 5637 human bladder carcinoma cells as described below in section E3. pGEM5-Luci (FIG. 8) had previously been constructed by inserting the […]/SalI fragment from pSVLuci (FIG. 2) containing the luciferase coding sequence and the SV40 late polyadenylation signal into pGEM 5-Zf (Promega, Madison Wis.) digested with XhoI/SalI.
pG-LUC1 (FIG. 9) and pRSVNeo were co-transfected into 5637 human bladder carcinoma cells as described above. Selection of G418 resistant clones was as described above except for using a concentration of 0.1 mg/ml G418. Analysis of cell clones was performed as above except that a known inducer of G-CSF expression (1-5 µg/ml lipopolysaccharide (LPS), E. coli serotype 055:b5, Difco, Detroit, Mich. or Sigma, St. Louis, Mo.) was used in place of dexamethasone.
(§1) Cell plating: Dynatech Microlite 96 well plates were custom pretreated for cell attachment by Dynatech Laboratories, Inc. (Chantilly, Va.). Alternatively, the 96 well plates were treated with 50 µl per well of human fibronectin (hFN, 15 µg/ml in PBS, Collaborative Research, Bedford, Mass.) overnight at 37 C. hFN-treated plates were washed with PBS using an Ultrawash 2 Microplate Washer (Dynatech Labs), to remove excess hFN prior to cell plating. M10, 532, and G21 cells maintained in their respective serum media (with 0.2 mg/ml G418) were washed with PBS, harvested by trypsinization, and counted using a hemocytometer and the Trypan Blue exclusion method according to protocols provided by Sigma, St. Louis, Mo. Chemical Company. Cells were then diluted into serum free defined media (with 0.2 mg/ml G418), and 0.2 ml of cell suspension per well was plated onto Dynatech treated plates (532 and G21) or hFN-treated plates (M10) using a Cetus Pro/Pette (Cetus, Emeryville Calif.). Plates were incubated overnight at 37 C in a humidified 5% CO2 atmosphere.
(§2) Addition of Chemicals to Cells: Chemicals from the Oncogene Science file were dissolved in DMSO at concentrations of 3-30 mg/ml. A liquid handling laboratory work station (RSP 5052, Tecan U.S. Chapel Hill, N.C.) was used to dilute the chemicals (three dilutions; 5 fold, 110 fold, and 726 fold). 10 11 of each dilution were added to each of quadruplicate samples of cells contained in the wells of 96-well Dyantech Microlite Plates. […]

[1] = system: human growth hormone promoter; assay type: cell-based; conditions: Table 2 A) transcriptional activators; 532 cells, 6 hours, high-throughput screen
Source text: A rat pituitary cell line, designated GC, (4, 25) was used for transfection of plasmids containing the human growth hormone promoter (see below) and was maintained in DMEM and Ham's F12 medium (1:1), supplemented with 12.5% FCS. For HTP screening, transfected GC clones were transferred to serum free defined medium consisting of DMEM and Ham's F12 medium (1:1) supplemented with growth factors, hormones and nutrients as described previously (17, 5).
The SalI-XhoI fragment of pSVLuci (FIG. 2) containing the luciferase coding sequences and the SV40 late polyadenylation site was inserted into pUC 8 (Biorad, Richmond, Calif.), which has been linearized by a SmaI/HinCII digestion and ligated to XhoI linkers (New England Biolabs, Beverly, Mass.). The new plasmid thus generated (pUXLuci; FIG. 4) was linearized by XhoI digestion followed by incubation with the Klenow fragment of E. coli DNA polymerase and the four deoxyribonucleotides to fill in the single-stranded ends of the vector. This linear (5.1 KB) form of pUXLuci was then ligated to the filled-in 550 bP HindIII-XbaI fragment of the plasmid phGH:CAT (FIG. 5) (25). Human growth hormone promoter sequences located on the HindIII-XbaI fragment were thus fused to the luciferase coding sequences located on pUXLuci generating the plasmid phGH-Luci (FIG. 6), which was used in transfections of GC cells as described below (Section E2).
phGH-LUCI (FIG. 6) and pRSVNeo, an antibiotic resistance plasmid (14), were co-transfected into GC rat pituitary cells as described above. Selection of G418-resistant cell clones was described above except for using a concentration of 0.2 mg/ml G418. Analysis of the cell clones was performed as above, except that known inducers of hGH expression (10-100 nM rat growth hormone releasing factor (rGRF, Bachem, Torrance, Calif.) and 10 μm forskolin (Sigma, St. Louis, Mo.) were used in place of dexamethasone. One clone, 532, was selected for further use in the high throughput screen.
as §1
Addition of Chemicals to Cells: Chemicals from the Oncogene Science file were dissolved in DMSO at concentrations of 3-30 mg/ml. A liquid handling laboratory work station (RSP 5052, Tecan U.S. Chapel Hill, N.C.) was used to dilute the chemicals (three dilutions; 5 fold, 110 fold, and 726 fold). 10 11 of each dilution were added to each of quadruplicate samples of cells contained in the wells of 96-well Dyantech Microlite Plates. Cell plates were then shaken on a microplate shaker (Dyantech, medium setting, 30 sec.) and incubated for 6 hours at 37 C, 5% CO2.
Bioluminescence Assay: After incubation with OSI-file chemicals, cell plates were washed 3 times with PBS using an Ultrawash 2 Microplate Washer (Dyantech Labs) and 75 µl of Lysis Buffer 2 were added to each well (Lysis Buffer 2 is the same as Lysis buffer 1 exept that the ATP and DTT concentrations were changed to 2.67 mM and 133 mM, respectively). […]

[2] = system: mouse mammary tumor virus (MMTV) promoter; assay type: cell-based; conditions: Table 2 A) transcriptional activators; M10 cells, 6 hours, high-throughput screen
Source text: NIH/3T3 fibroblast cells (ATCC number CRL 1658) were used for transfection of plasmids containing the mouse mammary tumor virus (MMTV) promoter linked to firefly luciferase coding sequences (see below). Cells were propagated in Dulbecco's modified Eagle's medium (DMEM) obtained from Gibco, Grand Island, N.Y. and supplemented with 10% FCS. For high-throughput (HTP) screening, transfected NIH/3T3 clones were transferred to serum free defined medium consisting of Iscove's modified Eagle's medium (IMEM) and Ham's F12 medium (1:1) supplemented with growth factors, hormones and nutrients as described previously (43).
The firefly luciferase gene was removed from the plant expression plasmid pDO432 (33) (FIG. 1) as a 1.9 kb BamHI fragment and cloned into the BamHI site of pSVL (Pharmacia, Piscataway, N.J.), a mammalian expression vector containing the SV40 promoter. The resulting plasmid (pSVLuci; FIG. 2) was digested with XhoI and SalI to produce a 2.4 kb fragment containing the luciferase coding sequences and the SV40 late polyadenylation site. This fragment was inserted into the XhoI site of pMSG (Pharmacia, Piscataway, N.J.), a eukaryotic expression vector containing the MMTV promoter. The resulting MMTV promoter-luciferase fusion plasmid (pMLuci; FIG. 3) was used to transfect NIH/3T3 cells as described below (section E1). Similar constructs can be made using luciferase vectors from Clontech (Palo Alto, Calif.).
pMluci (FIG. 3) and pSV2Neo, an antibiotic resistance plasmid (34), were co-transfected into NIH/3T3 mouse fibroblast cells using the calcium phosphate precipitation method (15) with a commercially available kit (Pharmacia, Piscataway N.J.). Two days later, cells were transferred to media containing 0.4 mg/ml G418 and were grown for an additional 10-14 days. G418-resistant clones were isolated by standard methods. Once sufficient cell numbers were obtained, clones were analyzed based on several criteria: constitutive luciferase production, induction of luciferase expression by dexamethasone (1 μm, Sigma, St. Louis, Mo.), satisfactory attachment to microtiter plates used in the high-throughput screen (see Section G) and acceptable standard deviation in multiple luciferase expression assays (see below for assay protocol). This analysis was carried out using the luciferase assay conditions described in sections F and G. Of the clones which satisfied the above criteria for the high throuphput screen, one clone, M10, was selected for use.
as §1, §2

| Compound | G-CSF promoter induction, clone G 1002 (G-CSF promoter) | GCSF fold induction relative to solvent control (human G-CSF promoter) | hGH fold induction relative to solvent control [1] | MMTV fold induction relative to solvent control [2] |
| --- | --- | --- | --- | --- |
| Interleukin-1 beta: Interleukin-1 beta, known transcriptional inducer | 2.6 fold | – | – | – |
| O=c1[nH]c(=O)n(C2CC(O)C(CO)O2)cc1Br (stereo not shown) [Chemical 543] | – | 7.17 fold | 0.72 fold | 0.98 fold |
